Test results taken from US10407422B2, “Triazolopyridine inhibitors of myeloperoxidase” (priority 2015, dated 2019).

Experiments:
[1] = target: T1, myeloperoxidase (MPO) (Homo sapiens (Human), UniProt P05164); assay: MPO peroxidation assay (Amplex Red assay); format: biochemical; conditions: potency range class
Procedure: MPO Peroxidation Assay (Amplex Red Assay) MPO peroxidation activity was measured in 100 mM KPi (pH 7.4) by utilizing the non-fluorescent reagent Amplex Red (Invitrogen Cat. #A12222) which can be oxidized to the highly fluorescent resorufin. Amplex Red is oxidized by the peroxidase action of MPO to resorufin. Reactions were carried out in 50 μL total volume by adding a 25 μL mixture of 200 pM myeloperoxidase and 40 nM H2O2(Sigma #349887) to 100 nL inhibitor in 100% DMSO in a 384 well Perkin Elmer Optiplate. Enzyme and compound were preincubated for ten minutes at room temperature. After the ten minute preincubation, 25 μL of an Amplex Red mixture containing 200 μM Amplex Red and 10 mM H2O2 was added to the plate. Kinetic determinations were carried out immediately on a Perkin Elmer Envision (15 minute kinetic read, Ex: 535 nm, Em: 590 nm). IC50 values were calculated by determining the slope of the linear portion of the kinetic trace (180-540 secs), and using that calculated slope to determine % inhibition occurring at each concentration of inhibitor using the following equation: [formula] where A=minimal Y value (activity level of inhibited sample), B=maximal Y value (activity level of uninhibited sample), C=Log IC50, D=Hill Slope, x=concentration of inhibitor. MPO Chlorination Assay (APF Assay)

[2] = target: T1, myeloperoxidase (MPO); assay: MPO chlorination assay (APF assay); format: biochemical; conditions: potency range class
Procedure: [formula] where A=minimal Y value (activity level of inhibited sample), B=maximal Y value (activity level of uninhibited sample), C=Log IC50, D=Hill Slope, x=concentration of inhibitor. MPO Chlorination Assay (APF Assay) MPO chlorination activity was measured in 100 mM KPi (pH 7.4) by utilizing the non-fluorescent reagent Aminophenyl fluorescein (APF, Invitrogen Cat. #A36003). APF is cleaved by (—OCl) to yield the fluorescent compound fluorescein. Reactions were carried out in 50 μL total volume by adding a 25 μL mixture of 200 pM myeloperoxidase and 120 mM NaCl to 100 nL inhibitor in 100% DMSO in a 384 well, non-binding surface clear bottom plate (Corning #3655). Enzyme, inhibitor, and chloride were preincubated for ten minutes at room temperature. After the ten minute preincubation, 25 μL of an APF mixture containing […], 120 mM NaCl and 10 μM H2O2 was added to the plate using the internal dispensing system of a Hammatsu FDSS 6000. Kinetic determinations were carried out immediately on the FDSS 6000 (3 minute kinetic read, 1 read every second, ex: 485 nm, em: 535 nm). IC50 values for inhibitors were calculated by taking the slope of the linear portion of the kinetic measurement (20 seconds to ˜80-120 secs). IC50 values were calculated by determining the slope of the linear portion of the kinetic trace […], and using that calculated slope to determine % inhibition occurring at each concentration of inhibitor using the following equation: [formula] where A=minimal Y value (activity level of inhibited sample), B=maximal Y value (activity level of uninhibited sample), C=Log IC50, D=Hill Slope, x=concentration of inhibitor. EPX Bromination Assay

T1 sequence (P05164 49-745): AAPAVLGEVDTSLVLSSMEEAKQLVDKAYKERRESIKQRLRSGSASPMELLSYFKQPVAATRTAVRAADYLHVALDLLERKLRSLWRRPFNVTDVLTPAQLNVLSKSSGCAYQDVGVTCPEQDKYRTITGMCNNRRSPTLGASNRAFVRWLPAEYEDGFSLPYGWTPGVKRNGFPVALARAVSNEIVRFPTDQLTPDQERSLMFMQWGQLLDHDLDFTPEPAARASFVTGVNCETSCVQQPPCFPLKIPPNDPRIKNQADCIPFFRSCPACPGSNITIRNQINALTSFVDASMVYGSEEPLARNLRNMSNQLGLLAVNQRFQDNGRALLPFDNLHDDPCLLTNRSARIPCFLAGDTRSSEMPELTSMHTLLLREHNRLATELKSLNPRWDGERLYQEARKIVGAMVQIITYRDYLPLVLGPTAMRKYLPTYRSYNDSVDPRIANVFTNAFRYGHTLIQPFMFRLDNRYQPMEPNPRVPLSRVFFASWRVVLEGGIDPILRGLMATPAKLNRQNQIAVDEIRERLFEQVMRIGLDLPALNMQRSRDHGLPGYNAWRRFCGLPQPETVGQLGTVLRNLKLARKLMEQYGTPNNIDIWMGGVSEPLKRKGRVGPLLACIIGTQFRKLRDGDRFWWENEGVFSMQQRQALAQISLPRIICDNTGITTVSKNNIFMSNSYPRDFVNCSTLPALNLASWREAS

`Nc1cc(Cc2cnn(C3CCCC3)c2)c2nn[nH]c2n1` [Example 54, 7-((1-Cyclopentyl-1H-pyrazol-4-yl)methyl)-3H-[1,2,3]triazolo[4,5-b]pyridin-5-amine] showed an IC50 [1] of 1 to 100 nM and an IC50 [2] of 1 to 100 nM.

In the case of `Nc1cc(Cc2cnn(CC3CCCCC3)c2)c2nn[nH]c2n1` [Example 55, 7-((1-(Cyclohexylmethyl)-1H-pyrazol-4-yl)methyl)-3H-[1,2,3]triazolo[4,5-b]pyridin-5-amine], the IC50 [1] is reported as 1 to 100 nM and the IC50 [2] is reported as 1 to 100 nM.

`Nc1cc(Cc2cnn(Cc3ccc(-n4cccn4)cc3)c2)c2nn[nH]c2n1` [Example 56, 7-[(1-{[4-(1H-Pyrazol-1-yl)phenyl]methyl}-1H-pyrazol-4-yl)methyl]-3H-[1,2,3]triazolo[4,5-b]pyridin-5-amine] showed an IC50 [1] of 1 to 100 nM and an IC50 [2] of 101 to 999 nM.

`Nc1cc(Cc2cnn(Cc3ccccc3Cl)c2)c2nn[nH]c2n1` [Example 57, 7-((1-(2-Chlorobenzyl)-1H-pyrazol-4-yl)methyl)-3H-[1,2,3]triazolo[4,5-b]pyridin-5-amine] gave an IC50 [1] of 1 to 100 nM and an IC50 [2] of 1 to 100 nM.

`Cc1nc(-c2cccc(Cn3cc(Cc4cc(N)nc5[nH]nnc45)cn3)c2)no1` [Example 59, 7-((1-(3-(5-Methyl-1,2,4-oxadiazol-3-yl)benzyl)-1H-pyrazol-4-yl)methyl)-3H-[1,2,3]triazolo[4,5-b]pyridin-5-amine] was tested, and the IC50 [1] was 1 to 100 nM and the IC50 [2] was 101 to 999 nM.

`Nc1cc(Cc2cnn(Cc3cccc(OC(F)(F)F)c3)c2)c2nn[nH]c2n1` [Example 60, 7-((1-(3-(Trifluoromethoxy)benzyl)-1H-pyrazol-4-yl)methyl)-3H-[1,2,3]triazolo[4,5-b]pyridin-5-amine] was tested, and the IC50 [1] was 1 to 100 nM and the IC50 [2] was 1 to 100 nM.

In the case of `Nc1cc(Cc2cnn(Cc3cccc(OC(F)F)c3)c2)c2nn[nH]c2n1` [Example 61, 7-((1-(3-(Difluoromethoxy)benzyl)-1H-pyrazol-4-yl)methyl)-3H-[1,2,3]triazolo[4,5-b]pyridin-5-amine], the IC50 [1] is reported as 1 to 100 nM and the IC50 [2] is reported as 1 to 100 nM.

`Nc1cc(Cc2cnn(Cc3cccc(C(F)(F)F)c3)c2)c2nn[nH]c2n1` [Example 62, 7-((1-(3-(Trifluoromethyl)benzyl)-1H-pyrazol-4-yl)methyl)-3H-[1,2,3]triazolo[4,5-b]pyridin-5-amine] showed an IC50 [1] of 1 to 100 nM and an IC50 [2] of 101 to 999 nM.

In the case of `Nc1cc(Cc2cnn(Cc3ccc(CO)cc3)c2)c2nn[nH]c2n1` [Example 64, (4-((4-((5-Amino-3H-[1,2,3]triazolo[4,5-b]pyridin-7-yl)methyl)-1H-pyrazol-1-yl)methyl)phenyl)methanol], the IC50 [1] is reported as 1 to 100 nM and the IC50 [2] is reported as 101 to 999 nM.

Work on `Nc1cc(Cc2cnn(CC3CCN(C(=O)OCc4ccccc4)CC3)c2)c2nn[nH]c2n1` [Example 65, Benzyl 4-((4-((5-amino-3H-[1,2,3]triazolo[4,5-b]pyridin-7-yl)methyl)-1H-pyrazol-1-yl)methyl)piperidine-1-carboxylate] yielded an IC50 [1] of 101 to 999 nM and an IC50 [2] of 101 to 999 nM.

`Nc1cc(Cc2cnn(C3CCNC3)c2)c2nn[nH]c2n1` (stereo not shown) [Example 66, 7-((1-(Pyrrolidin-3-yl)-1H-pyrazol-4-yl)methyl)-3H-[1,2,3]triazolo[4,5-b]pyridin-5-amine] gave an IC50 [1] of 101 to 999 nM and an IC50 [2] of 101 to 999 nM.

Work on `Nc1cc(Cc2cnn(Cc3cccc(Cc4ccccc4)c3)c2)c2nn[nH]c2n1` [Example 67, 7-((1-(3-Benzylbenzyl)-1H-pyrazol-4-yl)methyl)-3H-[1,2,3]triazolo[4,5-b]pyridin-5-amine] yielded an IC50 [1] of 1 to 100 nM and an IC50 [2] of 1 to 100 nM.

`Nc1cc(Cc2cnn(Cc3ccc4cc(O)ccc4c3)c2)c2nn[nH]c2n1` [Example 68, 6-((4-((5-Amino-3H-[1,2,3]triazolo[4,5-b]pyridin-7-yl)methyl)-1H-pyrazol-1-yl)methyl)naphthalen-2-ol] gave an IC50 [1] of 1 to 100 nM and an IC50 [2] of 101 to 999 nM.

Work on `CN(C)CCOc1ccc2cc(Cn3cc(Cc4cc(N)nc5[nH]nnc45)cn3)ccc2c1` [Example 69, 7-((1-((6-(2-(Dimethylamino)ethoxy)naphthalen-2-yl)methyl)-1H-pyrazol-4-yl)methyl)-3H-[1,2,3]triazolo[4,5-b]pyridin-5-amine] yielded an IC50 [1] of 101 to 999 nM and an IC50 [2] of 1 to 100 nM.

For `Cc1cc(Cc2cc(N)nc3[nH]nnc23)no1` [Example 71, 7-[(5-Methyl-1,2-oxazol-3-yl)methyl]-3H-[1,2,3]triazolo[4,5-b]pyridin-5-amine], the IC50 [1] was 101 to 999 nM and the IC50 [2] was 101 to 999 nM.

`CN(C)CCNC(=O)c1ccc(Cn2cc(Cc3cc(N)nc4[nH]nnc34)cn2)cc1` [Example 72, 4-((4-((5-Amino-3H-[1,2,3]triazolo[4,5-b]pyridin-7-yl)methyl)-1H-pyrazol-1-yl)methyl)-N-(2-(dimethylamino)ethyl)benzamide] gave an IC50 [1] of 1 to 100 nM and an IC50 [2] of 101 to 999 nM.

Work on `Nc1cc(Cc2cnn(Cc3ccc(C(=O)NCc4ncc[nH]4)cc3)c2)c2nn[nH]c2n1` [Example 74, N-((1H-Imidazol-2-yl)methyl)-4-((4-((5-amino-3H-[1,2,3]triazolo[4,5-b]pyridin-7-yl)methyl)-H-pyrazol-1-yl)methyl)benzamide] yielded an IC50 [1] of 1 to 100 nM and an IC50 [2] of 101 to 999 nM.

In the case of `Nc1cc(Cc2cnn(Cc3ccc(C(=O)NCCN4CCOCC4)cc3)c2)c2nn[nH]c2n1` [Example 75, 4-{[4-({5-Amino-3H-[1,2,3]triazolo[4,5-b]pyridin-7-yl}methyl)-1H-pyrazol-1-yl]methyl}-N-[2-(morpholin-4-yl)ethyl]benzamide], the IC50 [1] is reported as 101 to 999 nM and the IC50 [2] is reported as 101 to 999 nM.

For `Nc1cc(Cc2cnn(Cc3ccc(C(=O)NCCO)cc3)c2)c2nn[nH]c2n1` [Example 76, 4-{[4-({5-Amino-3H-[1,2,3]triazolo[4,5-b]pyridin-7-yl}methyl)-1H-pyrazol-1-yl]methyl}-N-(2-hydroxyethyl)benzamide], the IC50 [1] was 1 to 100 nM and the IC50 [2] was 101 to 999 nM.

`CN(C)CCN(C)C(=O)c1ccc(Cn2cc(Cc3cc(N)nc4[nH]nnc34)cn2)cc1` [Example 77, 4-{[4-({5-Amino-3H-[1,2,3]triazolo[4,5-b]pyridin-7-yl}methyl)-1H-pyrazol-1-yl]methyl}-N-[2-(dimethylamino)ethyl]-N-methylbenzamide] showed an IC50 [1] of 1 to 100 nM and an IC50 [2] of 101 to 999 nM.

In the case of `Nc1cc(Cc2cnn(Cc3ccc(C(=O)NCc4ccn[nH]4)cc3)c2)c2nn[nH]c2n1` [Example 78, 4-{[4-({5-Amino-3H-[1,2,3]triazolo[4,5-b]pyridin-7-yl}methyl)-1H-pyrazol-1-yl]methyl}-N-(1H-pyrazol-5-ylmethyl)benzamide], the IC50 [1] is reported as 1 to 100 nM and the IC50 [2] is reported as 101 to 999 nM.

For `Nc1cc(Cc2cnn(Cc3ccc(C(=O)NCc4cn[nH]c4)cc3)c2)c2nn[nH]c2n1` [Example 79, 4-{[4-({5-Amino-3H-[1,2,3]triazolo[4,5-b]pyridin-7-yl}methyl)-1H-pyrazol-1-yl]methyl}-N-(1H-pyrazol-4-ylmethyl)benzamide], the IC50 [1] was 1 to 100 nM and the IC50 [2] was 101 to 999 nM.

With `Nc1cc(Cc2cnn(Cc3ccc(C(=O)NCc4ccccn4)cc3)c2)c2nn[nH]c2n1` [Example 80, 4-{[4-({5-Amino-3H-[1,2,3]triazolo[4,5-b]pyridin-7-yl}methyl)-1H-pyrazol-1-yl]methyl}-N-(pyridin-2-ylmethyl)benzamide] the IC50 [1] was 1 to 100 nM and the IC50 [2] was 101 to 999 nM.

`Nc1cc(Cc2cnn(Cc3ccc(C(=O)NCc4ncn[nH]4)cc3)c2)c2nn[nH]c2n1` [Example 81, 4-{[4-({5-Amino-3H-[1,2,3]triazolo[4,5-b]pyridin-7-yl}methyl)-1H-pyrazol-1-yl]methyl}-N-(1H-1,2,4-triazol-5-ylmethyl)benzamide] showed an IC50 [1] of 1 to 100 nM and an IC50 [2] of 101 to 999 nM.

Compound `CN(Cc1ncc[nH]1)C(=O)c1ccc(Cn2cc(Cc3cc(N)nc4[nH]nnc34)cn2)cc1` [Example 82, 4-{[4-({5-Amino-3H-[1,2,3]triazolo[4,5-b]pyridin-7-yl}methyl)-1H-pyrazol-1-yl]methyl}-N-(1H-imidazol-2-ylmethyl)-N-methylbenzamide] has an IC50 [1] of 1 to 100 nM and an IC50 [2] of 101 to 999 nM.

In the case of `Nc1cc(Cc2cnn(Cc3ccc(C(=O)NCCc4cnc[nH]4)cc3)c2)c2nn[nH]c2n1` [Example 83, 4-{[4-({5-Amino-3H-[1,2,3]triazolo[4,5-b]pyridin-7-yl}methyl)-1H-pyrazol-1-yl]methyl}-N-[2-(1H-imidazol-4-yl)ethyl]benzamide], the IC50 [1] is reported as 1 to 100 nM and the IC50 [2] is reported as 101 to 999 nM.
